Data: US20150218212A1, “FLUORINATED EPOXYKETONE-BASED TETRAPEPTIDE COMPOUNDS AND USES THEREOF AS PROTEASOME INHIBITORS” (FLUORINOV PHARMA INC., priority 2012, published 2015)

How the values were obtained:
Assay type in all cases: cell-based, human
[1] = test system: NCI-H226; experiment: NCI screening panel, NCI-H226 (Non-Small Cell Lung Cancer)
Experimental: (§1) Representative compounds of Formula I were screened using the National Cancer Institute (NCI) screening panel, which consists of a panel of human tumor cell lines, representing leukemia, melanoma, and cancers of the lung, colon, ovary, breast, prostate and renal system.
(§2) After 24 h, two plates of each cell line are fixed in situ with TCA, to represent a measurement of the cell population for each cell line at the time of drug addition (Tz). Experimental drugs are solubilised in dimethyl sulfoxide at 400-fold the desired final maximum test concentration and stored frozen prior to use. At the time of drug addition, an aliquot of frozen concentrate is thawed and diluted to twice the desired final maximum test concentration with complete medium containing 50 μg/mL gentamicin. Additional four, 10-fold or ½ log serial dilutions are made to provide a total of five drug concentrations plus control. Aliquots of 100 μl of these different drug dilutions are added to the appropriate microtiter wells already containing 100 μl of medium, resulting in the required final drug concentrations.
(§3) Following drug addition, the plates are incubated for an additional 48 h at 37° C., 5% CO2, 95% air, and 100% relative humidity. For adherent cells, the assay is terminated by the addition of cold TCA (trichloroacetic acid). Cells are fixed in situ by the gentle addition of 50 μl of cold 50% (w/v) TCA (final concentration, 10% TCA) and incubated for 60 minutes at 4° C. The supernatant is discarded, and the plates are washed five times with tap water and air dried. Sulforhodamine B (SRB) solution (100 μl) at 0.4% (w/v) in 1% acetic acid is added to each well, and plates are incubated for 10 minutes at room temperature. After staining, unbound dye is removed by washing five times with 1% acetic acid and the plates are air dried. Bound stain is subsequently solubilised with 10 mM trizma base, and the absorbance is read on an automated plate reader at a wavelength of 515 nm. For suspension cells, the methodology is the same except that the assay is terminated by fixing settled cells at the bottom of the wells by gently adding 50 μl of 80% TCA (final concentration, 16% TCA). Using the seven absorbance measurements [time zero, (Tz), control growth, (C), and test growth in the presence of drug at the five concentration levels (Ti)], the percentage growth is calculated at each of the drug concentrations levels. Percentage growth inhibition is calculated as: [(Ti−Tz)/(C−Tz)]×100 for concentrations for which Ti>/=Tz and [(Ti−Tz)/Tz]×100 for concentrations for which Ti<Tz.
(§4) Three dose response parameters are calculated for each experimental agent. Growth inhibition of 50% (GI50) is calculated from [(Ti−Tz)/(C−Tz)]×100=50, which is the drug concentration resulting in a 50% reduction in the net protein increase (as measured by SRB staining) in control cells during the drug incubation. The drug concentration resulting in total growth inhibition (TGI) is calculated from Ti=Tz. The LC50 (concentration of drug resulting in a 50% reduction in the measured protein at the end of the drug treatment as compared to that at the beginning) indicating a net loss of cells following treatment is calculated from [(Ti−Tz)/Tz]×100=−50. Values are calculated for each of these three parameters if the level of activity is reached. However, if the effect is not reached or is exceeded, the value for that parameter is expressed as greater or less than the maximum or minimum concentration tested.

[2] = test system: NCI/ADR-RES; experiment: NCI screening panel, NCI/ADR-RES (Ovarian Cancer)
Experimental: as §1, §2, §3, §4

[3] = test system: OVCAR-8; experiment: NCI screening panel, OVCAR-8 (Ovarian Cancer)
Experimental: as §1, §2, §3, §4

[4] = test system: SW-620; experiment: NCI screening panel, SW-620 (Colon Cancer)
Experimental: as §1, §2, §3, §4

[5] = test system: RXF 393; experiment: NCI screening panel, RXF 393 (Renal Cancer)
Experimental: as §1, §2, §3, §4

[6] = test system: 786-0; experiment: NCI screening panel, 786-0 (Renal Cancer)
Experimental: as §1, §2, §3, §4

[7] = test system: SK-MEL-2; experiment: NCI screening panel, SK-MEL-2 (Melanoma)
Experimental: as §1, §2, §3, §4

[8] = test system: COLO 205; experiment: NCI screening panel, COLO 205 (Colon Cancer)
Experimental: as §1, §2, §3, §4

[9] = test system: HCC-2998; experiment: NCI screening panel, HCC-2998 (Colon Cancer)
Experimental: as §1, §2, §3, §4

[10] = test system: SK-MEL-5; experiment: NCI screening panel, SK-MEL-5 (Melanoma)
Experimental: as §1, §2, §3, §4

[11] = test system: UACC-257; experiment: NCI screening panel, UACC-257 (Melanoma)
Experimental: as §1, §2, §3, §4

[12] = test system: UACC-62; experiment: NCI screening panel, UACC-62 (Melanoma)
Experimental: as §1, §2, §3, §4

[13] = test system: OVCAR-3; experiment: NCI screening panel, OVCAR-3 (Ovarian Cancer)
Experimental: as §1, §2, §3, §4

| Compound | Log10GI50 [1] | Log10LC50 [1] | Log10TGI50 [1] | Log10GI50 [2] | Log10LC50 [2] | Log10TGI50 [2] | Log10GI50 [3] | Log10LC50 [3] | Log10TGI50 [3] | Log10GI50 [4] | Log10LC50 [4] | Log10TGI50 [4] | Log10GI50 [5] | Log10LC50 [5] | Log10TGI50 [5] | Log10GI50 [6] | Log10LC50 [6] | Log10TGI50 [6] | Log10GI50 [7] | Log10LC50 [7] | other results |
| --- | --- | --- | --- | --- | --- | --- | --- | --- | --- | --- | --- | --- | --- | --- | --- | --- | --- | --- | --- | --- | --- |
| CC(C)C[C@H](NC(=O)[C@H](COC(F)F)NC(=O)[C@H](COC(F)F)NC(=O)[C@H](COC(F)F)NC(=O)CN1CCOCC1)C(=O)[C@@]1(C)CO1 [Example 17, (2S)-3-(difluoromethoxy)-N-[(1S)-1-(difluoromethoxymethyl)-2-[[(1S)-1-(difluoro-methoxymethyl)-2-[[(1S)-3-methyl-1-[(2R)-2-methyloxirane-2-carbonyl]butyl]amino]-2-oxo-ethyl]amino]-2-oxo-ethyl]-2-[(2-mor-pholinoacetyl)amino]-propanamide] | −7.15 | −6.14 | −6.61 | −4.50 | >−4.00 | >−4.00 | −6.31 | >−4.00 | −5.25 | −7.08 | >−4.00 | −4.95 | −6.48 | −5.41 | −5.94 | −5.99 | >−4.00 | −4.92 | −7.27 | −5.76 | Log10TGI50 [7]: −6.60; Log10GI50 [8]: −6.62; Log10LC50 [8]: >−4.00; Log10TGI50 [8]: −4.76; Log10GI50 [9]: −6.74; Log10LC50 [9]: −6.19; Log10TGI50 [9]: −6.46; Log10GI50 [10]: −7.10; Log10LC50 [10]: −6.01; Log10TGI50 [10]: −6.53; Log10GI50 [11]: −6.45; Log10LC50 [11]: >−4.00; Log10TGI50 [11]: −5.56; Log10GI50 [12]: −7.14; Log10LC50 [12]: −5.39; Log10TGI50 [12]: −6.42; Log10GI50 [13]: −7.30; Log10LC50 [13]: −6.05; Log10TGI50 [13]: −6.65 |
| CC(C)C[C@H](NC(=O)[C@H](COC(F)F)NC(=O)CN1CCOCC1)C(=O)N[C@@H](COC(F)F)C(=O)N[C@@H](Cc1ccccc1)C(=O)[C@@]1(C)CO1 [Example 4, (2S)-N-[(1S)-2-[[(1S)-1-benzyl-2-[(2R)-2-methyloxiran-2-yl]-2-oxo-ethyl]amino]-1-(difluoromethoxymethyl)-2-oxo-ethyl]-2-[[(2S)-3-(difluoromethoxy)-2-[(2-mor-pholinoacetyl)amino]propanoyl]amino]-4 methyl-pentanamide] | −7.66 | −6.57 | −7.30 | −5.19 | >−4.00 | >−4.00 | −6.67 | >−4.00 | −5.89 | −7.43 | −4.40 | −5.98 | −6.83 | −6.05 | −6.44 | −6.44 | −4.27 | −5.58 | −7.57 | >−4.00 | Log10TGI50 [7]: −6.86; Log10GI50 [8]: −7.25; Log10LC50 [8]: −4.46; Log10TGI50 [8]: −6.28; Log10GI50 [9]: −7.29; Log10LC50 [9]: −6.30; Log10TGI50 [9]: −6.75; Log10GI50 [10]: −7.33; Log10LC50 [10]: −5.71; Log10TGI50 [10]: −6.60; Log10GI50 [11]: −6.71; Log10LC50 [11]: −4.14; Log10TGI50 [11]: −6.11; Log10GI50 [12]: −7.39; Log10LC50 [12]: −4.67; Log10TGI50 [12]: −6.59; Log10GI50 [13]: −7.43; Log10LC50 [13]: −6.11; Log10TGI50 [13]: −6.89 |
| CC(C)C[C@H](NC(=O)[C@H](Cc1ccccc1)NC(=O)[C@H](COC(F)F)NC(=O)[C@H](COC(F)F)NC(=O)CN1CCOCC1)C(=O)[C@@]1(C)CO1 [Example 11, (2S)-2-[[(2S)-3-(difluoromethoxy)-2-[[(2S)-3-(difluoromethoxy)-2-[(2-morpholinoacetyl)-amino]propanoyl]amino]propanoyl]amino]-N-[(1S)-3-methyl-1-[(2R)-2-methyloxirane-2-carbonyl]butyl]-3-phenyl-propanamide] | −7.77 | −7.11 | −7.44 | −5.16 | >−4.00 | >−4.00 | −6.94 | >−4.00 | >−4.00 | −7.63 | >−4.00 | −5.97 | −6.98 | −6.23 | −6.60 | −6.66 | >−4.00 | −5.63 | −7.48 | >−4.00 | Log10TGI50 [7]: −6.68; Log10GI50 [8]: −7.21; Log10LC50 [8]: >−4.00; Log10TGI50 [8]: −5.31; Log10GI50 [9]: −7.66; Log10LC50 [9]: −6.95; Log10TGI50 [9]: −7.33; Log10GI50 [10]: −7.45; Log10LC50 [10]: −6.23; Log10TGI50 [10]: −6.83; Log10GI50 [11]: −6.79; Log10LC50 [11]: >−4.00; Log10TGI50 [11]: −6.14; Log10GI50 [12]: −7.52; Log10LC50 [12]: >−4.00; Log10TGI50 [12]: −6.73; Log10GI50 [13]: −7.66; Log10LC50 [13]: −6.82; Log10TGI50 [13]: −7.31 |
